Laboratory results: PMC6615598, “Novel antibiotics effective against gram-positive and -negative multi-resistant bacteria with limited resistance” (PLoS Biology, 2019)
≈ marks a conversion by molar mass, not a printed value. Where “and” joins values, the source holds several entries; their conditions need not be identical. Identical values can stand only once.

Assays:
[1] = test system: S. aureus Mu3 (MRSA); experiment: microbe, parasite or virus in culture
Protocol: (§1) (10−4 M final concentrations). At selected time intervals, 100 μl of reaction mixture was collected, quenched by 200 μl 95% EtOH, and adjusted at pH 2 to prevent peptide adsorption to serum proteins. […] Supernatants were analyzed by RP-HPLC on an Xbridge C18 column with a linear gradient of water, 0.08% TFA, and acetonitrile with 1% TFA. HPLC peak areas were used to calculate the percentages of intact compound remaining at the various time points. MIC and MBC values were determined in triplicate in many ESKAPE clinical isolates, including a dozen MDR S. aureus, by the broth microdilution method. Peptidomimetics and antibiotics were assayed in a concentration range of 1 to 128 μM. The bacterial inoculum (5 × 10^5 colony-forming units [CFUs]/well) was prepared in MHB or CAMHB (150 μl). A Biotek Synergy 2 spectrophotometer was used to record the results after 18–20 h incubation at 35°C (±2°C). […] After every hour of culture for 4 h, serial dilutions were plated on BHI plates and incubated overnight at 37°C, and then the CFUs were counted and expressed as log CFU/ml. Phosphate-buffered saline (PBS)-exposed S. aureus MRSA was included as a control.

[2] = test system: S. aureus Newman; experiment: microbe, parasite or virus in culture
Protocol: as §1

[3] = test system: E. faecium Aus0004; conditions: Aus0004
Protocol: as §1

[4] = Stability in human serum (half-life); type: in vitro ADME; conditions: 25% human serum, pre-incubated 15 min at 37°C, peptide 10^−4 M, RP-HPLC peak areas, mean of biological triplicates
Protocol: as §1
(§2) Supplementary file pbio.3000337.s013.docx: S7 Table Peptide half-lives in human and mouse sera. […] Peptide amounts and half-lives were determined by HPLC. Experiments were conducted on 25% human or mouse sera. Values are shown in minutes. The mean values correspond to biological triplicates. HPLC, high pressure liquid chromatography. (DOCX) Click here for additional data file.

[5] = Stability in mouse serum (half-life); type: in vitro ADME; conditions: 25% mouse serum, pre-incubated 15 min at 37°C, peptide 10^−4 M, RP-HPLC peak areas, mean of biological triplicates
Protocol: as §1, §2

[6] = test system: S. aureus; experiment: Intracellular ATP levels of SCV versus normal colonies from skin abscesses; type: cell-based; conditions: individual values
Protocol: (§3) For the cutaneous abscess model, the mice were randomly divided into 5 sets. The mice were anesthetized with isoflurane, their dorsal fur shaved, and their skin disinfected with 70% ethanol. An overnight culture of S. aureus MRSA or P. aeruginosa LESB58 was washed with 0.9% NaCl, and then a subcutaneous injection of 2 × 10^9 CFUs and an equal amount of sterile Cytodex microcarrier beads (20 mg.ml^−1, Sigma) for S. aureus MRSA, or 10^8 CFUs for P. aeruginosa were injected into the shaved area. […] Mice were monitored every day and then euthanized with CO2 on Day 6 or on Day 3. Abscesses were excised, measured, and homogenized in PBS using an Ultra-Turax. Serial dilutions of the samples were plated on BHI (MRSA) or 2YT medium (LESB58) plates and then incubated overnight at 37°C. Afterward, the CFUs were counted and expressed as log CFU/ml. Dermonecrosis areas were calculated according to the formula π × L × W. ATP levels were determined with an ATP assay kit (Promega) according to manufacturer instructions on sets of 5 colonies harboring the SCV phenotype, and sets of 5 colonies harboring a normal phenotype, after growth on BHI plates.

[7] = test system: S. aureus MRSA; experiment: Cutaneous abscess mouse model (lesion size, CFU); type: in vivo, mice; conditions: cutaneous abscesses from MRSA in mice; IV 24 h post-infection, 1.5 mg.kg-1; individual values
Protocol: as §3

[8] = test system: S. aureus N315 (MRSA); experiment: microbe, parasite or virus in culture; conditions: Staphylococcus aureus, MRSA
Protocol: as §1

[9] = test system: MRSA; experiment: Severe sepsis mouse model, survival; type: in vivo; conditions: mice, approximately 2 × 10^9 CFUs MRSA IV; 4 IV doses of 0.5 mg.kg^−1 at 2, 24, 48, 72 h
Source text: Tolerance and toxicity studies were done on male Swiss mice (CD-1 Crl: CD-1 [ICR] IGS; Charles River). These were 7 to 10 weeks old and weighed an average of 37.2 g. All experimental protocols were approved by the Adaptive Therapeutics Animal Care and Use Committee (APAFiS #4508-2016031l15541258 v2). For the sepsis model, we used female Swiss mice (Janvier Labs), 6 to 8 weeks old and weighing approximately 30 g. Experiments were monitored in the ARCHE-BIOSIT animal lab in Rennes, in biological duplicate. We used Groups of 5 mice for the mild and the severe sepsis models with MRSA. Mice were IV inoculated with 150 μl of MRSA suspensions in 0.9% NaCl containing approximately 5 × 10^8 CFUs for the “mild” sepsis and approximately 2 × 10^9 CFUs for the “severe” sepsis, respectively. […] Mice survival was monitored for 4 d (“severe” sepsis) or 14 d (“mild” sepsis), and the statistical significance of difference(s) between the groups was evaluated using the Wilcoxon test. P < 0.05 was considered significant. Two weeks (“mild” sepsis) or 4 d (“severe” sepsis) after inoculation, mice were euthanized with CO2.

[10] = test system: MRSA (Mu3); experiment: microbe, parasite or virus in culture; conditions: Staphylococcus aureus, MRSA
Protocol: (§4) For 15 d in MHB, MICs were determined daily for each pseudopeptide and their antibiotic controls. This was done using cells from the well in which the compound concentration was one-half of the MIC (1/2MIC). For each compound, the 1/2MIC well from the previous day’s MIC assay plate was re-suspended and the bacteria grown to a density of about 10^8 cells ml−1. The suspension was diluted in MHB or CAMHB (10^6 cells/ml) and then used to determine the MIC of the same compound determined by micro broth dilution. All MIC measurements were performed in duplicate. Aliquots of the 5 × 10^4 cell/ml dilutions for each 1/2MIC well were periodically plated on MHB and incubated at 35°C for 18 h to verify cell density by colony counts and for visual inspection of colony phenotypes. To control compound stability, peptide solution MICs were determined during and at the end of the 15 d and were compared to cells unexposed to antibiotics. In vivo resistance was also assessed in treated mice (1.5 mg.kg^−1) for 4 d (sepsis) or 6 d (skin abscesses). […] The broth microdilution method was performed as per EUCAST recommendations on 5 independent colonies per mouse (3 mice per set, 15 colonies per drug tested). For severe sepsis and subcutaneous abscesses, in vivo resistance was determined by plating aliquots of crude kidney extracts or abscesses on plates containing 1-, 2-, 4-, or 8-fold the peptide MICs 7 or 3 d post infections, respectively.

[11] = test system: MSSA (Newman); experiment: microbe, parasite or virus in culture; conditions: Staphylococcus aureus
Protocol: as §4

[12] = test system: MRSA (Mu3); experiment: microbe, parasite or virus in culture
Protocol: as §4

[13] = test system: S. aureus 33845; experiment: microbe, parasite or virus in culture; conditions: Staphylococcus aureus
Protocol: as §1
(§5) Supplementary file pbio.3000337.s007.docx: S1 Table Antibacterial activity of the 4 peptidomimetics focusing on 9 S. aureus MDR clinical isolates. Clinical isolates BCB/POE and 740404 DUN are from human sepsis. The other strains are from catheter infections or suppurating wounds. Brilacidin was used as a control. MDR, multidrug resistant. (DOCX) Click here for additional data file.

[14] = test system: S. aureus COB; experiment: microbe, parasite or virus in culture; conditions: Staphylococcus aureus
Protocol: as §1, §5

[15] = test system: S. aureus BCB/POE; experiment: microbe, parasite or virus in culture; conditions: Staphylococcus aureus
Protocol: as §1, §5

[16] = test system: S. aureus 740404 DUN; experiment: microbe, parasite or virus in culture; conditions: Staphylococcus aureus
Protocol: as §1, §5

[17] = test system: S. aureus ROUS; experiment: microbe, parasite or virus in culture; conditions: Staphylococcus aureus
Protocol: as §1, §5

[18] = test system: S. aureus 66534 E; experiment: microbe, parasite or virus in culture; conditions: Staphylococcus aureus
Protocol: as §1, §5

[19] = test system: S. aureus FORT; experiment: microbe, parasite or virus in culture; conditions: Staphylococcus aureus
Protocol: as §1, §5

[20] = test system: S. aureus PM64; experiment: microbe, parasite or virus in culture; conditions: Staphylococcus aureus, PM64
Protocol: as §1, §5

[21] = test system: S. aureus 702697 HOU; experiment: microbe, parasite or virus in culture; conditions: Staphylococcus aureus
Protocol: as §1, §5

[22] = test system: P. aeruginosa LESB58; experiment: Cutaneous abscess mouse model (CFU); type: in vivo, mice; conditions: mice, P. aeruginosa LESB58; 9 mg.kg^−1 subcutaneous multiple doses; day 3
Protocol: as §3

[23] = test system: Escherichia coli ML35P; conditions: E. coli ML35P
Protocol: as §1

[24] = test system: Escherichia coli 13090
Protocol: as §1

[25] = test system: Escherichia coli K12; conditions: E. coli K12
Protocol: as §1

[26] = test system: P. aeruginosa PA14; conditions: P. aeruginosa PA14
Protocol: as §1

[27] = test system: P. aeruginosa 15643
Protocol: as §1

[28] = test system: P. aeruginosa LESB58; conditions: P. aeruginosa strain LESB58; biological triplicates
Protocol: as §1, with “μM.” for “μM. The bacterial inoculum (5 × 10^5 colony-forming units [CFUs]/well) was prepared in MHB or CAMHB (150 μl). A Biotek Synergy 2 spectrophotometer was used to record the results after 18–20 h incubation at 35°C (±2°C).”, “Phosphate-buffered saline (PBS)-exposed S. aureus MRSA was included as a control.” left out
For 15 d in MHB, MICs were determined daily for each pseudopeptide and their antibiotic controls. […] The suspension was diluted in MHB or CAMHB (10^6 cells/ml) and then used to determine the MIC of the same compound determined by micro broth dilution. […] To control compound stability, peptide solution MICs were determined during and at the end of the 15 d and were compared to cells unexposed to antibiotics. In vivo resistance was also assessed in treated mice (1.5 mg.kg^−1) for 4 d (sepsis) or 6 d (skin abscesses). […]

[29] = broth microdilution, 3 independent experiments

CCCCCCCCCC(=O)N[C@@H](Cc1c[nH]c2ccccc12)C(=O)N[C@H](CC(N)=O)C(=O)N[C@@H](CC(=O)O)C(=O)N[C@@H]1C(=O)NCC(=O)N[C@@H](CCCN)C(=O)N[C@@H](CC(=O)O)C(=O)N[C@H](C)C(=O)N[C@@H](CC(=O)O)C(=O)NCC(=O)N[C@H](CO)C(=O)N[C@@H]([C@H](C)CC(=O)O)C(=O)N[C@@H](CC(=O)c2ccccc2N)C(=O)O[C@@H]1C [Daptomycin, daptomycin, reference compound]
MIC ([1]; Mu3): 0.5 (1) μM
MIC ([2]; Newman): 0.25 (0.5) μM
MIC [3]: 0.5 (1) μM
half-life [4]: 52.3 ± 6.67 h
half-life [5]: > 58.3 h

CN[C@H](CC(C)C)C(=O)N[C@H]1C(=O)N[C@@H](CC(N)=O)C(=O)N[C@H]2C(=O)N[C@H]3C(=O)N[C@H](C(=O)N[C@H](C(=O)O)c4cc(O)cc(O)c4-c4cc3ccc4O)[C@H](O)c3ccc(c(Cl)c3)Oc3cc2cc(c3O[C@@H]2O[C@H](CO)[C@@H](O)[C@H](O)[C@H]2O[C@H]2C[C@](C)(N)[C@H](O)[C@H](C)O2)Oc2ccc(cc2Cl)[C@H]1O [Vanco]
Intracellular ATP level, 'normal growing' ([6]; 'normal growing' colonies from MRSA abscesses of mice treated IV with 1.5 mg.kg-1): 122379 AU and 119801 AU and 111813 AU and 113023 AU and 103234 AU
Intracellular ATP level, SCV ([6]; SCV from MRSA abscesses of mice treated IV with 1.5 mg.kg-1): 20326.9 AU and 5706.67 AU and 6923.08 AU and 10333.3 AU and 15090.9 AU
Area of dermonecrosis [7]: 88.6 mm2 and 44.4 mm2 and 88.5 mm2 and 82.8 mm2 and 67.1 mm2 and 13 mm2 and 197.8 mm2 and 164.7 mm2 and 166.7 mm2 and 90 mm2

CN[C@H](CC(C)C)C(=O)N[C@H]1C(=O)N[C@@H](CC(N)=O)C(=O)N[C@H]2C(=O)N[C@H]3C(=O)N[C@H](C(=O)N[C@H](C(=O)O)c4cc(O)cc(O)c4-c4cc3ccc4O)[C@H](O)c3ccc(c(Cl)c3)Oc3cc2cc(c3O[C@@H]2O[C@H](CO)[C@@H](O)[C@H](O)[C@H]2O[C@H]2C[C@](C)(N)[C@H](O)[C@H](C)O2)Oc2ccc(cc2Cl)[C@H]1O [Vancomycin, vancomycin]
MIC [8]: 2 µM
MIC ([1]; Staphylococcus aureus, MRSA): 1 µM
MIC ([2]; Staphylococcus aureus, NEWMAN): 0.5 µM
Survival in severe sepsis [9]: much less effective
MIC [10]: 1 µM (≈ 1.45 µg/mL)
MIC ([10]; 24 h): 1 µM (≈ 1.45 µg/mL)
MIC ([11]; MSSA (Newman), d0 of serial passages): 0.5 µM (≈ 0.725 µg/mL)
MIC ([11]; MSSA|NEWMAN, d14 of serial passages at sub-MIC): 1 µM (≈ 1.45 µg/mL)
MIC ([12]; MRSA (Mu3), d14 of serial passages at sub-MIC): 1 (1.4) μM
MIC ([12]; Staphylococcus aureus, MRSA): 1 µM (≈ 1.45 µg/mL)

N=C(N)NCCCCC(=O)Nc1cc(C(F)(F)F)cc(NC(=O)c2cc(C(=O)Nc3cc(C(F)(F)F)cc(NC(=O)CCCCNC(=N)N)c3O[C@@H]3CCNC3)ncn2)c1O[C@@H]1CCNC1 [brilacidin, reference compound]
Survival in severe sepsis [9]: cured the infected animals
MIC [13]: 1 µg/mL
MIC [14]: 1 µg/mL
MIC [15]: 1 µg/mL
MIC [16]: 1 µg/mL
MIC [17]: 1 µg/mL
MIC [18]: 1 µg/mL
MIC [19]: 1 µg/mL
MIC [20]: 1 µg/mL
MIC [21]: 1 µg/mL

colistin
Number of bacteria in abscess [22]: lowered the number of bacteria
MBC/MIC [23]: 1
MIC [23, 29]: 0.5 (0.65) μM
MBC/MIC ([24]; E. coli 13090): 1
MIC ([24]; E. coli 13090, clinical strain, Caen hemoculture, broth microdilution, 3 independent experiments): 1 (1.3) μM
MBC/MIC [25]: 1
MIC [25, 29]: 0.5 (0.65) μM
MBC/MIC [26]: 2
MIC [26, 29]: 0.5 (0.65) μM
MBC/MIC ([27]; P. aeruginosa 15643): 2
MIC ([27]; P. aeruginosa 15643, clinical strain, Caen hemoculture, broth microdilution, 3 independent experiments): 0.5 (0.65) μM
MIC [28]: 1 µM
